pEC50, pIC50: −log10 of the molar value. Like-named read-outs stand apart in the source and are kept apart here.

The target in assay [1] is human Werner helicase (WRN, amino acids 517-1235 with L1074F point mutation) (Homo sapiens (Human), UniProt Q14191, L1074F). Briefly: WRN (BV08) ADP-Glo assay. It is filed as biochemical. To be noted: human WRN (aa 517-1235, L1074F), read-out: ADP-Glo_hWRN_IC50. The method, boiled down:
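Untagged WRN 517-1235 (L1074F), Sf9/baculovirus-expressed, 0.15 nM, preincubated 15 min with compound, then 5 μM ATP and 0.1 nM annealed DNA duplex added; 60 min at 25 °C in Bicine pH 7.5, 1 mM MgCl2, 1% DMSO. ADP-Glo luminescence; % inhibition vs DMSO and 20 μM NSC-617145 controls, four-parameter IC50 fit.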
For orientation: ADP-Glo first removes unused ATP, then detects ADP through luciferase.

In assay [2] the test system is p21 induction in HCT 116 cells. Briefly: p21 induction in cells (In-Cell Western, p21/GAPDH ratio). Format: cell-based. The note with it: 24 h compound incubation, read-out: p21_EC50. A digest of the protocol:
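HCT 116 cells treated 24 h at 37° C with 11-point, 2-fold dilutions typically from 10 μM, in duplicate. Fixed cells co-stained for p21 (800 nm) and GAPDH (700 nm) by In-Cell Western. p21/GAPDH ratio normalised between DMSO and reference WRN inhibitor controls, and EC50 obtained by nonlinear regression.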

human Werner helicase (WRN, amino acids 517-1235 with L1074F point mutation), sequence (Q14191 other isoform, or with tags, fused parts or gaps L1074F (already in the parent)): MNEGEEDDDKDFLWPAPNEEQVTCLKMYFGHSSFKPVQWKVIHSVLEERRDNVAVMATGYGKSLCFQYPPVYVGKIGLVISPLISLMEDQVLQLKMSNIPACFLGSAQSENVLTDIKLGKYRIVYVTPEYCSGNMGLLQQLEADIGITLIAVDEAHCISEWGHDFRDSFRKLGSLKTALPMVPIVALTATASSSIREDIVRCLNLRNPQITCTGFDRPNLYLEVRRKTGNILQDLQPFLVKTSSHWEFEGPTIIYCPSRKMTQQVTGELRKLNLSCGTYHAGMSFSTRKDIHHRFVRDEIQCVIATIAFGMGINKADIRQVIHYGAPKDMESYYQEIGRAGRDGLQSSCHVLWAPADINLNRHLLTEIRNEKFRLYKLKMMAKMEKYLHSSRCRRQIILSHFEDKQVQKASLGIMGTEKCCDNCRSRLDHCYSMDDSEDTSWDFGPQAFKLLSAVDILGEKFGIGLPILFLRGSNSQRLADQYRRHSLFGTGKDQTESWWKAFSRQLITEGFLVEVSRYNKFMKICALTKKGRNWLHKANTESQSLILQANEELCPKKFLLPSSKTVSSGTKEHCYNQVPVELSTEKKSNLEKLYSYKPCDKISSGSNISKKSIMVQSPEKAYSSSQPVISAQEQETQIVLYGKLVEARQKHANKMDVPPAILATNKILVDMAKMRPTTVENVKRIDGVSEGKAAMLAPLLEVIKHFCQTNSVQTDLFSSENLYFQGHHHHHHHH

For `CCc1c(N2CCN(C(=O)c3ncnc(C)c3O)[C@H]3CC[C@@H]32)c(=O)c2nn(-c3ccnc(OC)c3)nc2n1CC(=O)NC12CC(C(F)(F)F)(C1)C2` [Compound I-11, 2-(5-ethyl-6-((1S,6S)-5-(5-hydroxy-6-methylpyrimidine-4-carbonyl)-2,5-diazabicyclo[4.2.0]octan-2-yl)-2-(2-methoxypyridin-4-yl)-7-oxo-2,7-dihydro-4H-[1,2,3]triazolo[4,5-b]pyridin-4-yl)-N-(3-(trifluoromethyl)bicyclo[1.1.1]pentan-1-yl)acetamide], in assay [1], the pIC50 is 7.30 to 8.30. Also, in assay [2] (Homo sapiens), the pEC50 was not below 6.30.

For `CCc1c(N2CCN(C(=O)c3ccccn3)[C@H]3CC[C@@H]32)c(=O)c2nn(C3=CCOCC3)nc2n1CC(=O)NC12CC(C(C)C)(C1)C2` [Compound I-184, 2-[2-(3,6-dihydro-2H-pyran-4-yl)-5-ethyl-7-oxo-6-[(1S,6S)-5-(pyridine-2-carbonyl)-2,5-diazabicyclo[4.2.0]octan-2-yl]-2H,4H,7H-[1,2,3]triazolo[4,5-b]pyridin-4-yl]-N-[3-(propan-2-yl)bicyclo[1.1.1]pentan-1-yl]acetamide], the pIC50 in assay [1] was 7.30 to 8.30. The pEC50 in assay [2] (Homo sapiens) is 5.70 to 6.30.

On to `CCc1c(N2CCN(C(=O)c3ncnc(C)c3O)[C@H]3CC[C@@H]32)c(=O)c2nn(-c3ccnc(C)c3)nc2n1CC(=O)Nc1ccc(C(F)(F)F)cc1Cl` [Compound I-96, N-[2-chloro-4-(trifluoromethyl)phenyl]-2-{5-ethyl-6-[(1S,6S)-5-(5-hydroxy-6-methylpyrimidine-4-carbonyl)-2,5-diazabicyclo[4.2.0]octan-2-yl]-2-(2-methylpyridin-4-yl)-7-oxo-2H,4H,7H-[1,2,3]triazolo[4,5-b]pyridin-4-yl}acetamide], for which the pIC50 in assay [1] was not below 8.30. Also, the pEC50 in assay [2] is not below 6.30.

For the compound `CCc1c(N2CCN(C(=O)c3ncnc(C)c3O)[C@H]3CC[C@@H]32)c(=O)c2nn(C3CC3)nc2n1CC(=O)NC12CC(C3CC3)(C1)C2` [Compound I-32, 2-{2-cyclopropyl-5-ethyl-6-[(1S,6S)-5-(5-hydroxy-6-methylpyrimidine-4-carbonyl)-2,5-diazabicyclo[4.2.0]octan-2-yl]-7-oxo-2H,4H,7H-[1,2,3]triazolo[4,5-b]pyridin-4-yl}-N-{3-cyclopropylbicyclo[1.1.1]pentan-1-yl}acetamide], the pIC50 in assay [1] is 7.30 to 8.30. The pEC50 in assay [2] (Homo sapiens) is 5.70 to 6.30.

Regarding `CCc1c(N2CCN(C(=O)c3ncnc(C)c3O)CC2)c(=O)c2nn(-c3ccnc(OC)c3)nc2n1CC(=O)Nc1ccc(C(F)(F)F)cc1Cl` [Compound I-149, N-[2-chloro-4-(trifluoromethyl)phenyl]-2-{5-ethyl-6-[4-(5-hydroxy-6-methylpyrimidine-4-carbonyl)piperazin-1-yl]-2-(2-methoxypyridin-4-yl)-7-oxo-2H,4H,7H-[1,2,3]triazolo[4,5-b]pyridin-4-yl}acetamide], in assay [1], the pIC50 is not below 8.30. Moreover, the pEC50 in assay [2] (Homo sapiens) was not below 6.30.

As for `CCc1c(N2CCN(C(=O)c3ncnc(C)c3O)CC2)c(=O)c2nn(-c3ccnc(OC)c3)nc2n1CC(=O)NC12CC(C(F)(F)F)(C1)C2` [Compound I-5, 2-(5-ethyl-6-(4-(5-hydroxy-6-methylpyrimidine-4-carbonyl)piperazin-1-yl)-2-(2-methoxypyridin-4-yl)-7-oxo-2,7-dihydro-4H-[1,2,3]triazolo[4,5-b]pyridin-4-yl)-N-(3-(trifluoromethyl)bicyclo[1.1.1]pentan-1-yl)acetamide], the pIC50 in assay [1] was 7.30 to 8.30. The pEC50 in assay [2] was 5.70 to 6.30.

Take `CCc1c(N2CCN(C(=O)c3cccc4oc(=O)[nH]c34)[C@H]3CC[C@@H]32)c(=O)c2nn(C3=CCOCC3)nc2n1CC(=O)NC12CC(C(C)C)(C1)C2` [Compound I-199, 2-[2-(3,6-dihydro-2H-pyran-4-yl)-5-ethyl-7-oxo-6-[(1S,6S)-5-(2-oxo-2,3-dihydro-1,3-benzoxazole-4-carbonyl)-2,5-diazabicyclo[4.2.0]octan-2-yl]-2H,4H,7H-[1,2,3]triazolo[4,5-b]pyridin-4-yl]-N-[3-(propan-2-yl)bicyclo[1.1.1]pentan-1-yl]acetamide]: the pIC50 in assay [1] was 7.30 to 8.30. Moreover, the pEC50 in assay [2] (Homo sapiens) was not below 6.30.

With `CCc1c(N2CCN(C(=O)c3ncnc(C)c3O)[C@H]3CC[C@@H]32)c(=O)c2nn(-c3cnn(C4CC4)c3)nc2n1CC(=O)NC12CC(C(C)C)(C1)C2` [Compound I-58, 2-[2-(1-cyclopropyl-1H-pyrazol-4-yl)-5-ethyl-6-[(1S,6S)-5-(5-hydroxy-6-methylpyrimidine-4-carbonyl)-2,5-diazabicyclo[4.2.0]octan-2-yl]-7-oxo-2H,4H,7H-[1,2,3]triazolo[4,5-b]pyridin-4-yl]-N-[3-(propan-2-yl)bicyclo[1.1.1]pentan-1-yl]acetamide], the pIC50 in assay [1] is 7.30 to 8.30. Moreover, the pEC50 in assay [2] is not below 6.30.

For the compound `CCc1c(N2CCN(C(=O)c3ncnc(C)c3O)CC2)c(=O)c2nn(-c3ccnc(OC)c3)nc2n1CC(=O)NC12CC(C(F)(F)F)(C1)C2` [Compound I-151, 2-{5-ethyl-6-[4-(5-hydroxy-6-methylpyrimidine-4-carbonyl)piperazin-1-yl]-2-(2-methoxypyridin-4-yl)-7-oxo-2H,4H,7H-[1,2,3]triazolo[4,5-b]pyridin-4-yl}-N-[3-(trifluoromethyl)bicyclo[1.1.1]pentan-1-yl]acetamide], the pIC50 in assay [1] was 7.30 to 8.30. In addition, the pEC50 in assay [2] (Homo sapiens) was 5.70 to 6.30.

For the compound `CCc1c(N2CCN(C(=O)c3ncnc(C)c3O)[C@H]3CC[C@@H]32)c(=O)c2nn(-c3ccc(OC)cc3)nc2n1CC(=O)NC12CC(C(C)C)(C1)C2` [Compound I-155, 2-{5-ethyl-6-[(1S,6S)-5-(5-hydroxy-6-methylpyrimidine-4-carbonyl)-2,5-diazabicyclo[4.2.0]octan-2-yl]-2-(4-methoxyphenyl)-7-oxo-2H,4H,7H-[1,2,3]triazolo[4,5-b]pyridin-4-yl}-N-[3-(propan-2-yl)bicyclo[1.1.1]pentan-1-yl]acetamide], the pIC50 in assay [1] was not below 8.30. The pEC50 in assay [2] (Homo sapiens) was not below 6.30.

Regarding `CCc1c(N2CCN(C(=O)c3ncnc(C)c3O)[C@H](C)C2)c(=O)c2nn(-c3ccnc(OC)c3)nc2n1CC(=O)NC12CC(C3CC3)(C1)C2` [Compound I-178, N-{3-cyclopropylbicyclo[1.1.1]pentan-1-yl}-2-{5-ethyl-6-[(3R)-4-(5-hydroxy-6-methylpyrimidine-4-carbonyl)-3-methylpiperazin-1-yl]-2-(2-methoxypyridin-4-yl)-7-oxo-2H,4H,7H-[1,2,3]triazolo[4,5-b]pyridin-4-yl}acetamide], the pIC50 in assay [1] was 7.30 to 8.30. Besides, in assay [2] (Homo sapiens), the pEC50 was 5.70 to 6.30.

For the compound `CCc1c(N2CCN(C(=O)c3ncnc(C)c3O)CC2)c(=O)c2nn(-c3ccnc(C)c3)nc2n1CC(=O)Nc1ccc(C(F)(F)F)cc1Cl` [Compound I-7, N-(2-chloro-4-(trifluoromethyl)phenyl)-2-(5-ethyl-6-(4-(5-hydroxy-6-methylpyrimidine-4-carbonyl)piperazin-1-yl)-2-(2-methylpyridin-4-yl)-7-oxo-2,7-dihydro-4H-[1,2,3]triazolo[4,5-b]pyridin-4-yl)acetamide], in assay [1], the pIC50 was not below 8.30. Moreover, the pEC50 in assay [2] (Homo sapiens) is not below 6.30.

For the origin of these results see patent US20250129069A1, “TRIAZOLO WRN INHIBITORS” (Nimbus Wadjet, Inc., priority 2023, published 2025).
